Measurements from patent publication US9260760B2, “Method for determining complete response to anticancer therapy” (Board of Regents, The University of Texas System, priority 2012, dated 2016).
Values joined by “and” are separate entries in the source; they are usually repeats but may differ in a detail not shown here. Equal entries are not always repeated.

Test system: metastatic colorectal cancer
Experiment: Study 1: retrospective cohort, XCEL with or without radiation; tumor response (RECIST), PFS and OS
Type: in vivo, human
Description: The institutional review board of The University of Texas M. D. Anderson Cancer Center approved this retrospective expanded cohort study. Between October 2000 and December 2003, seventy-four patients with metastatic colorectal cancer received capecitabine with concurrent celecoxib (n=66), or rofecoxib (n=2), ibuprofen (n=2), sulindac (n=2) and high dose aspirin (n=2).
The radiation was delivered to the target area using 18 MV photons with 3-D conformal planning technique. The dose of radiation was either 35-40 Gy (n=18) or >45 Gy (n=15) with dose radiation missing in one patient. […] Celecoxib was continued with capecitabine to prevent HFS and to improve survival.
All patients were subjected to routine clinical examinations, laboratory analyses, and computed tomography. Patients were seen weekly during radiotherapy if treated on site or every 6-9 weeks with physical examinations, laboratory tests, and computed tomography. Treatment-related toxicity was graded using the National Institutes of Health's Common Toxicities Criteria (CTC) version 2.0. Tumor responses were evaluated using RECIST criteria. Complete response was defined as complete radiographic disappearance of measurable or evaluable disease or stable, minimal radiographic findings; partial response was defined as reduction of the longest dimension of measurable disease by at least 50%; stable disease was defined as reduction of the longest dimension by less than 25%; These responses or stable must be confirmed at least by 3 months interval evaluation; Progressive disease was defined as growth of the tumor by more than 25% in the longest dimension or development of new lesions. Overall response rate was defined as the sum of the complete and partial response rates and the tumor control rate was defined as the sum of overall response rates with stable disease rates. The date of death was ascertained through the cancer registry or through a search of patients' social security numbers in the Social Security Death Index (ssdi.genealogy.rootsweb.com). The cutoff point for collection of data was April 2004.
Continuous variables were summarized using the mean (±standard deviation) or the median (range). […] Progression-free and overall survival distributions were summarized using the method of Kaplan and Meier. Differences in progression-free and overall survival by subgroup were analyzed using the log-rank test. Multivariate models of predictors of progression-free survival and overall survival were evaluated using the proportional hazards (Cox) regression model. P<0.05 was considered statistically significant.

[1] = First-line responders, no radiation (n = 5)
[2] = First-line responders, radiation (n = 4)
[3] = First-line, no radiation (n = 14)
[4] = Second-line, no radiation (n = 13)
[5] = Second-line, radiation (n = 20)
[6] = second-line XCEL, progressed on 5FU and irinotecan (n=28)
[7] = second-line with 9 first-line responding patients included
[8] = second-line, irinotecan refractory

Compound: Cc1ccc(-c2cc(C(F)(F)F)nn2-c2ccc(S(N)(=O)=O)cc2)cc1 [XCEL]
- Overall Survival, Median (95% CI) (All): 22.0 (17.8-31.5) months
- Progression-free survival, Median (95% CI) (All): 8.3 (7.0-11.0) months
- Overall Survival, Median (95% CI) (CEA >3.0 ng/ml): 20.0 (16.2-26.9) months
- Progression-free survival, Median (95% CI) (CEA >3.0 ng/ml): 7.1 (5.7-9.4) months
- Overall Survival, Median (95% CI) (CEA ≦3.0 ng/ml): 31.5 (18.0-NR) months
- Progression-free survival, Median (95% CI) (CEA ≦3.0 ng/ml): 16.8 (9.4-NR) months
- Complete response [1]: 4 (80) No. of patients (%)
- Overall response [1]: 4 (80) No. of patients (%)
- Partial response [1]: 0 (0) No. of patients (%)
- Stable disease [1]: 0 (0) No. of patients (%)
- Tumor control [1]: 4 (80) No. of patients (%)
- Complete response [2]: 3 (75) No. of patients (%)
- Overall response [2]: 4 (100) No. of patients (%)
- Partial response [2]: 1 (0) No. of patients (%)
- Stable disease [2]: 0 (0) No. of patients (%)
- Tumor control [2]: 4 (100) No. of patients (%)
- Complete response [3]: 1 (7) No. of patients (%)
- Overall response [3]: 4 (29) No. of patients (%)
- Partial response [3]: 3 (21) No. of patients (%)
- Stable disease [3]: 8 (57) No. of patients (%)
- Tumor control [3]: 12 (86) No. of patients (%)
- Complete response (First-line, radiation (n = 10)): 3 (30) No. of patients (%)
- Overall response (First-line, radiation (n = 10)): 4 (40) No. of patients (%)
- Partial response (First-line, radiation (n = 10)): 3 (20) No. of patients (%)
- Stable disease (First-line, radiation (n = 10)): 4 (40) No. of patients (%)
- Tumor control (First-line, radiation (n = 10)): 8 (80) No. of patients (%)
- Progression-free survival, Median (95% CI) (LDH >618): 6.4 (4.3-7.2) months
- Progression-free survival, Median (95% CI) (LDH ≦618): 14.5 (9.2-26.3) months
- Overall Survival, Median (95% CI) (LDH ≦618 (normal level of LDH)): 31 months and 31.5 (23.6-NR) months
- Overall Survival, Median (95% CI) (No Radiation (RT)): 20.0 (16.6-22.8) months
- Progression-free survival, Median (95% CI) (No Radiation (RT)): 7.2 (4.8-9.4) months
- Complete response (No radiation (n = 32)): 4 (13) No. of patients (%)
- Overall response (No radiation (n = 32)): 10 (31) No. of patients (%)
- Partial response (No radiation (n = 32)): 6 (19) No. of patients (%)
- Stable disease (>4 months) (No radiation (n = 32)): 13 (41) No. of patients (%)
- Tumor control (No radiation (n = 32)): 23 (72) No. of patients (%)
- Overall Survival, Median (95% CI) (No surgery): 19.3 (16.2-26.9) months
- Progression-free survival, Median (95% CI) (No surgery): 7.8 (6.4-9.4) months
- Progression-free survival, Median (95% CI) (RT <45 Gy): 8.0 (6.4-14.6) months
- Overall Survival, Median (95% CI) (RT ≧45 Gy): 21.8 (17.6-NR) months
- Progression-free survival, Median (95% CI) (RT ≧45 Gy): 21.2 (7.1-21.2) months
- Complete response (Radiation (n = 34)): 9 (26) No. of patients (%)
- Overall response (Radiation (n = 34)): 15 (44) No. of patients (%)
- Partial response (Radiation (n = 34)): 6 (18) No. of patients (%)
- Stable disease (>4 months) (Radiation (n = 34)): 12 (35) No. of patients (%)
- Tumor control (Radiation (n = 34)): 27 (79) No. of patients (%)
- Complete response [4]: 0 No. of patients (%)
- Overall response [4]: 2 (15) No. of patients (%)
- Partial response [4]: 2 (15) No. of patients (%)
- Stable disease [4]: 5 (38) No. of patients (%)
- Tumor control [4]: 7 (54) No. of patients (%)
- Complete response [5]: 2 (10) No. of patients (%)
- Overall response [5]: 7 (35) No. of patients (%)
- Partial response [5]: 5 (25) No. of patients (%)
- Stable disease [5]: 8 (40) No. of patients (%)
- Tumor control [5]: 15 (75) No. of patients (%)
- Progression-free survival, Median (95% CI) (Surgery): 16.8 (8.3-31.4) months
- patients achieving complete response (after first-line response to irinotecan-based therapy): 7 of 9
- second line overall response rate (all 9 first-line irinotecan responders included): 40.5%
- complete response (CR) (all 66 patients): 20%
- overall response rate (all 66 patients): 38%
- partial response (PR) (all 66 patients): 18%
- tumor control rate (all 66 patients): 76%
- median PFS (first-line XCEL): 8.3 months
- median overall survival (first-line XCEL): 26.9 months
- Stable disease (%) (first-line XCEL (n=24)): 50%
- complete response (CR) (first-line XCEL (n=24)): 17%
- overall response rate (first-line XCEL (n=24)): 34% and 33%
- tumor control rate (first-line XCEL (n=24)): 84%
- complete responses (nineteen of 66 patients, XCEL alone or with radiation): 29%
- complete response by site (nodal metastasis): 51%
- complete response by site (peritoneum): 40%
- Stable disease (%) (second-line XCEL (n=28)): 50%
- complete response (CR) [6]: 7%
- overall response rate [6]: 25%
- tumor control rate [6]: 68%
- median overall survival [7]: 19.3 months
- median progression free survival [7]: 8.3 months
- median PFS [8]: 6.7 months
- median overall survival [8]: 17.8 months and 17.6 months
